Source: patent publication US8329697B2, “Imidizo[1,2-A]pyrazines useful as AHCY hydrolase inhibitors” (Merck Sharp & Dohme Corp., priority 2008, dated 2012)

Tests used:
[1] = target: AHCY enzyme (UniProt P23526); test: In vitro AHCY activity assay (ThioGlo1 fluorescence); format: biochemical; settings: recombinant expressed human or mouse AHCY enzyme; SAH substrate; ThioGlo1 readout
Protocol: In vitro AHCY Activity Assay
The AHCY activity of the compounds of the invention can be measured by the following in vitro assay.
The AHCY enzyme assay is based on the principle of fluorescence emission following incubation of a reactive dye with the products of an AHCY catalyzed reaction. The reactive dye (Thioglo1) binds homocysteine through its thiol-containing moiety. The products of the AHCY catalyzed reaction, adenosine and homocysteine, are produced from the hydrolysis of SAH (s-adenosylhomocysteine) through AHCY's hydrolase activity.
The reaction is optimized in 96-, 384-, 1536- and 3456-assay plate formats with recombinant expressed human or mouse AHCY enzyme. When run under initial velocity conditions, the assay is suitable for IC50 and % inhibition calculations.
• 1) ThioGlo1 (catalog 595501, Calbiochem); 100 mM in DMSO • 2) SAH (catalog A-9384, Sigma); 4.69 mM with 0.06 N HCl • 3) Aristeromycin (catalog A-0928, Sigma); 100 mM in DMSO • 4) NAD (catalog 43410, Sigma); 14.5 mM in water • 5) EDTA in 500 mM pH 8 (catalog BP2482-100, Fisher) • 6) DTT stock 200 mM in water • 7) AHCY enzyme (diluted with 100 mM tris pH7.5) Dilutions immediately prior to use: • 1. SAH 750 μM (10×) (dilute with 100 mM Iris pH 7.5) • 2. Aristeromycin (10×) (dilute to 1 mM with 100 mM Tris pH7.5) • 3. ThioGlo1 (10×) (dilute to 100 μM in Tris pH7.5) • 4. […] Read plate (Ex 380 Em 510)

[2] = test system: AHCY in HEK293 and/or SH-SY5Y cells; test: Cell-based assay of AHCY inhibition (secreted homocysteine); settings: secreted homocysteine from Hek293 or SH-SY5Y cells, 72 hrs compound treatment
Description: Cell-Based Assay of AHCY Inhibition
The AHCY activity of the compounds of the invention can be measured by the following cell-based assay.
Post treatment collection of the adherent Hek293 and/or SH-SY5Y cells is also made for a viability and proliferation measure. Since the amount of secreted homocysteine is limited by the amount of SAH that is converted to homocysteine in the cells and its subsequent secretion, an EC50 measure and % inhibition relative to DMSO control cells can be made. Since the amount of secreted metabolites such as homocysteine can also be related to the absolute and cellular viability, an MTT (3-(4,5-Dimethylthiazol-2-yl)-2,5-diphenyltetrazolium bromide) measure of proliferation and relative cytotoxicty (as compared to control conditions) may also be made.
• 1. The day before compound treatment, plate 20,000 cells (Hek293 or SH-SY5Y) in 96 well cell culture treated plates in 100 μl of cell culture media (DMEM and 10% fetal bovine serum). • 2. Add fresh media plus compound (and DMSO treated controls) for 72 hrs. • 3. Collect conditioned media for measurement of secreted homocysteine and perform viability/proliferation assay on adherent cells. Measure of Secreted Homocysteine: • 1. […]
a. […] Detection: Fluorescence: Excitation 385 nm, Emission 515 nm • v. […]
b. […] absorbance at 550 nm and 690 nM. • 6. Express readout as 550 nM-690 nM.

Structure (SMILES) | IC50 [1] | IC50 [2]
Nc1nccn2c([C@@H]3C=C(CO)[C@@H](O)[C@H]3O)cnc12 [Example 1, (1S,2R,5S)-5-(8-aminoimidazo[1,2-a]pyrazin-3-yl)-3-(hydroxymethyl)cyclopent-3-ene-1,2-diol] | 4 nM | 4 nM
Nc1nccn2c([C@@H]3CC[C@@H](O)[C@H]3O)cnc12 [Example 2, (1R,2S,3S)-3-(8-aminoimidazo[1,2-a]pyrazin-3-yl)cyclopentane-1,2-diol] | 692 nM | 1.4 nM
